Measured values as given in patent US20240425518A1, “N-MACROCYCLIC AMIDE COMPOUNDS, PREPARATION METHODS THEREOF AND APPLICATIONS THEREOF AS MEDICAMENTS” (Chengdu FANXI Biopharma Co., Ltd., priority 2023, published 2024).
Changes are numbered by the printed parent chain.

What was measured:
Assay type in all cases: biochemical
Ab1 (h) = molecular target: T1, Ab1 (h) (Homo sapiens, UniProt P00519); test: Radioisotope labeling kinase assay (Eurofins), Ab1; details: 1 μM compound; read-out: Inhibitory activity per unit concentration/Activity % Ab1 (h)
T1 construct: purchased Eurofins
T1 sequence (P00519 whole entry): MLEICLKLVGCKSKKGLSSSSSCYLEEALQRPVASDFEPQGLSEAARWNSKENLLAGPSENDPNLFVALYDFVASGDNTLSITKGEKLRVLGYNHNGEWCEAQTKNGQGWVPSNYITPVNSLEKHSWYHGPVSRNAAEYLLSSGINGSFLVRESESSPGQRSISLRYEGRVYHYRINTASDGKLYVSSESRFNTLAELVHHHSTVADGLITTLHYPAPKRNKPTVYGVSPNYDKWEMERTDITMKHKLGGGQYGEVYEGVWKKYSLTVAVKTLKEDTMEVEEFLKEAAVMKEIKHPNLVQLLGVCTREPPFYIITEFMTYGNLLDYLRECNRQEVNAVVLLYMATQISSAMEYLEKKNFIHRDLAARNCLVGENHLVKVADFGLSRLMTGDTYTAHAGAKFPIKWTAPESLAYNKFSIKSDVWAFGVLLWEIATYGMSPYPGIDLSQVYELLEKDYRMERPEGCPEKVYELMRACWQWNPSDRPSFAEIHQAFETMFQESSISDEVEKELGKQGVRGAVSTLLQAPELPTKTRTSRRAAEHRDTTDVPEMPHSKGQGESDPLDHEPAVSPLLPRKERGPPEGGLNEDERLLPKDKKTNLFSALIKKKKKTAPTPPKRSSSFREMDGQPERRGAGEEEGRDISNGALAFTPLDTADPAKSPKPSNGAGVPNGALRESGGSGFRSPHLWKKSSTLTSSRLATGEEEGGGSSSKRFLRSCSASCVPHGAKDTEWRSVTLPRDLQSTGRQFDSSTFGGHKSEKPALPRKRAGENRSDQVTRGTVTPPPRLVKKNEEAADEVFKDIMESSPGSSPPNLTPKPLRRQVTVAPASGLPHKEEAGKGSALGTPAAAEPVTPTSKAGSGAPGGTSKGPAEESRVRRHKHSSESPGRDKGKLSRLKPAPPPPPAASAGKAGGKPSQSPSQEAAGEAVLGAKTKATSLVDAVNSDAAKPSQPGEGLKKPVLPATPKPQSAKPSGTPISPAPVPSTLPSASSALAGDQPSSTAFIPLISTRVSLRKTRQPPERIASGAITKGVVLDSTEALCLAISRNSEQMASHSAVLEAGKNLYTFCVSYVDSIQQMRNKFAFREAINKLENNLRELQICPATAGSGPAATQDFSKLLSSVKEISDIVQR
Protocol: (§1) An activity to a human recombinant protein kinase of a series of compounds was determined by a radioisotope labeling method, which was provided by Eurofins Company. A compound to be detected was mixed with a corresponding protein kinase buffer (20 mM propyl sulfonate (MOPS, […].), 1 mM EDTA, 0.10 β-mercaptoethanol, 0.010 Brij-35, […], and 1 mg/mL BSA), the mixture was added into a reaction system (100 μM reaction substrate […], 8 mM MOPS with a pH value of 7.0, 10 mM MgAcetate, 0.2 mM EDTA, and a certain concentration of γ-^33P-ATP). After adding an MgATP composite solution, the reaction was started at room temperature for 40 minutes, and the reaction was terminated by adding 5 μl of […] solution. Then, 10 μl of reaction solution was dropwise added onto a filter and washed with 75 mM phosphoric acid solution for three times, 5 minutes each time, then washed with methanol once again, and dried and subjected to scintillation counting.

BTK (h) = molecular target: T2, BTK (h) (Homo sapiens, UniProt Q06187); test: Radioisotope labeling kinase assay (Eurofins), BTK; details: 1 μM compound; read-out: Inhibitory activity per unit concentration/Activity % BTK (h)
T2 construct: purchased Eurofins
T2 sequence (Q06187 whole entry): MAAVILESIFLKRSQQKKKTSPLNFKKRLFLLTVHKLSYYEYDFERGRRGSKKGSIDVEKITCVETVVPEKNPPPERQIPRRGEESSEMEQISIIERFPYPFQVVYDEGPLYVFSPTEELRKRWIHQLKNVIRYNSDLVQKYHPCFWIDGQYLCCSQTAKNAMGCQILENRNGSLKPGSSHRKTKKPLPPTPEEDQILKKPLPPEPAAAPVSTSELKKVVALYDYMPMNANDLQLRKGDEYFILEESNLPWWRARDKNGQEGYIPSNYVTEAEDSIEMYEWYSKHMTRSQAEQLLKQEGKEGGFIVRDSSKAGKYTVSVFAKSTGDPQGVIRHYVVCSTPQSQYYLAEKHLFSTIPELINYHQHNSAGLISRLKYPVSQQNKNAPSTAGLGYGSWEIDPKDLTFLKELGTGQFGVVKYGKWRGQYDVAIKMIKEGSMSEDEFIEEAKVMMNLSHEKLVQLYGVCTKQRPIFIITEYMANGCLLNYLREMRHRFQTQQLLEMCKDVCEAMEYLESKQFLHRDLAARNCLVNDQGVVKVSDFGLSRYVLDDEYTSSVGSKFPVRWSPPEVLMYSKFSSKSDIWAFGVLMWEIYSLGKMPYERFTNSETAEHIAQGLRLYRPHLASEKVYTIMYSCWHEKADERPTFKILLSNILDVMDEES
Protocol: as §1

Flt3 (D835Y) (h) = molecular target: T3, Flt3 (D835Y) (h) (Homo sapiens, UniProt P36888, D835Y); test: Radioisotope labeling kinase assay (Eurofins), Flt3 (D835Y); details: 1 μM compound; read-out: Inhibitory activity per unit concentration/Activity % Flt3 (D835Y) (h)
T3 construct: purchased Eurofins
T3 sequence (P36888 27-993 D835Y): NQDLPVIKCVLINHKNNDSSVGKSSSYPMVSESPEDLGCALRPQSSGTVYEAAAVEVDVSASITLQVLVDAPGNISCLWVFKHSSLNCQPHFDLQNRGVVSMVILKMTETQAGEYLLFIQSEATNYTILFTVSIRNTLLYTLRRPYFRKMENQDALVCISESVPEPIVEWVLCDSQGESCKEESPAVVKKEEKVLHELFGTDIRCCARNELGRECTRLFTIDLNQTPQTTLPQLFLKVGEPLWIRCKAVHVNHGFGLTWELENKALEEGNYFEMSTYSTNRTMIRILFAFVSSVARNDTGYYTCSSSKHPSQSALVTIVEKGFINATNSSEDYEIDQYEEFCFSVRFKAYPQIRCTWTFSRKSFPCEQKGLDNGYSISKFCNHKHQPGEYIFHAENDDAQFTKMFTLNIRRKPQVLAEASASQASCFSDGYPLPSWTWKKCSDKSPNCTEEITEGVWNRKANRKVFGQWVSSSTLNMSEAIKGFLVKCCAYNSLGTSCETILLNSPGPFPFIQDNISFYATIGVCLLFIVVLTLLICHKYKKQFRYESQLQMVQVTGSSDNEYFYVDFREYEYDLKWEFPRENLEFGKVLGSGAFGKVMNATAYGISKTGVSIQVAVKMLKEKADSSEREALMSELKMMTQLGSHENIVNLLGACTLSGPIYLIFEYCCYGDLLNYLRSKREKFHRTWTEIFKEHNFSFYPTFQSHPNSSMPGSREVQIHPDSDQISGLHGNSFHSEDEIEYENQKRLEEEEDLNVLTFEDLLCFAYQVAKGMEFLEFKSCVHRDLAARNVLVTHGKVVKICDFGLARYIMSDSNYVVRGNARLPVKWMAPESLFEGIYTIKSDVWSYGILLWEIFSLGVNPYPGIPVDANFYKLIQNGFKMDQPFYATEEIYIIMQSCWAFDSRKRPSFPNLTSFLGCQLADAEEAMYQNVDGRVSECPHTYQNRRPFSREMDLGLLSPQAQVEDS
Protocol: as §1

Flt3 (h) = molecular target: T4, Flt3 (h) (Homo sapiens, UniProt P36888); test: Radioisotope labeling kinase assay (Eurofins), Flt3; details: 1 μM compound; read-out: Inhibitory activity per unit concentration/Activity % Flt3 (h)
T4 construct: purchased Eurofins
T4 sequence (P36888 27-993): T3 sequence (P36888 27-993 D835Y) with Y809D
Protocol: as §1

JAK3 (h) = molecular target: T5, JAK3 (h) (Homo sapiens, UniProt P52333); test: Radioisotope labeling kinase assay (Eurofins), JAK3; details: 1 μM compound; read-out: Inhibitory activity per unit concentration/Activity % JAK3 (h)
T5 construct: purchased Eurofins
T5 sequence (P52333 1-1124): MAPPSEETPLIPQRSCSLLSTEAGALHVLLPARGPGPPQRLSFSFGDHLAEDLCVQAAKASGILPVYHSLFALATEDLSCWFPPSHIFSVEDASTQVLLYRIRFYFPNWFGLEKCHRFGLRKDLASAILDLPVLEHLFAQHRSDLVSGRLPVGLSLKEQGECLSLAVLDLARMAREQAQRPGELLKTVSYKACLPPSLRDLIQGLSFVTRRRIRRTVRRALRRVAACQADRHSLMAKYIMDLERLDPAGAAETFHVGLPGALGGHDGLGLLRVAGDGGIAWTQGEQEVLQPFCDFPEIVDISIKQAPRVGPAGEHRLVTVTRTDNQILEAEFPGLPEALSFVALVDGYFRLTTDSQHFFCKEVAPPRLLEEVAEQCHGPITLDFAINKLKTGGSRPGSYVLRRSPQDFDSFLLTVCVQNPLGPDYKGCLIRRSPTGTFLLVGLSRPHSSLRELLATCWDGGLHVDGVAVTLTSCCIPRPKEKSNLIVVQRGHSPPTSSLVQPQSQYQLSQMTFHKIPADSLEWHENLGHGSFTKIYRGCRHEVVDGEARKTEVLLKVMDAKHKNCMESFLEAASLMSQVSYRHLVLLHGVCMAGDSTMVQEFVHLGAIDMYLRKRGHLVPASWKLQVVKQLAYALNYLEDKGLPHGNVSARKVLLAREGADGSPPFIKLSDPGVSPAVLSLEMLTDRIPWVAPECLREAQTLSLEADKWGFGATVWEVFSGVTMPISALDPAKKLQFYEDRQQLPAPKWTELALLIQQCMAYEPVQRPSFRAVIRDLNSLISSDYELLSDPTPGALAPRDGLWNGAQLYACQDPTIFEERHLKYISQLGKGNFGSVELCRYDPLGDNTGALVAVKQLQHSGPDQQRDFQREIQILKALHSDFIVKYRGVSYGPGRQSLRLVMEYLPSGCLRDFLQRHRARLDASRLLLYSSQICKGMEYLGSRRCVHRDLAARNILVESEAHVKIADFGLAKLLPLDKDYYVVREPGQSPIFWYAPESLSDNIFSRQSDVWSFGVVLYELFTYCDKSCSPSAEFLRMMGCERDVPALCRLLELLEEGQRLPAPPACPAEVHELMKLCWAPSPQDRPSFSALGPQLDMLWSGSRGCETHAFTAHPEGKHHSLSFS
Protocol: as §1

| activity at 1 µM (Ab1 (h)) | activity at 1 µM (BTK (h)) | activity at 1 µM (Flt3 (D835Y) (h)) | activity at 1 µM (Flt3 (h)) | activity at 1 µM (JAK3 (h)) | Structure (SMILES) |
| --- | --- | --- | --- | --- | --- |
| 57% | 71% | 1% | 7% | 77% | CN1C/C=C/COCc2cccc(c2)-c2ccnc(n2)Nc2cc(N)cc(c2)C1 [XIII-2] |
| 42% | 61% | 3% | 12% | 56% | N#Cc1ccc(/C=C/C(=O)Nc2cc3cc(c2)Nc2nccc(n2)-c2cccc(c2)COC/C=C/COC3)cc1 [XVI-2] |
| 57% | 88% | 7% | 17% | 75% | O=C(/C=C/C(F)(F)F)Nc1cc2cc(c1)Nc1nccc(n1)-c1cccc(c1)COC/C=C/COC2 [XVI-5] |
| 17% | 45% | -1% | 7% | 21% | O=C(/C=C/c1cnc[nH]1)Nc1cc2cc(c1)Nc1nccc(n1)-c1cccc(c1)COC/C=C/COC2 [XVI-7] |
| 39% | 49% | -2% | 24% | 34% | O=C(/C=C/COc1cc2cc(c1)Nc1nccc(n1)-c1cccc(c1)COC/C=C/COC2)N1CCCC1 [XVI-13] |
| 46% | 47% | 3% | 8% | 21% | O=C(/C=C/COc1cc2cc(c1)Nc1nccc(n1)-c1cccc(c1)COC/C=C/COC2)N1CCOCC1 [XVI-14] |
| 7% | 12% | 6% | 20% | 6% | O=C(/C=C/CNC1CCOC1)Nc1cc2cc(c1)Nc1nccc(n1)-c1cccc(c1)COC/C=C/COC2 (centres unmarked) [XVI-15] |
| 19% | 48% | -1% | 20% | 32% | C1=C/COCc2cccc(c2)-c2ccnc(n2)Nc2cc(cc(OC/C=C/CN3CCOCC3)c2)COC/1 [XVI-16] |
| -4% | 17% | 8% | 16% | 4% | NC1CCN(C/C=C/C(=O)Nc2cc3cc(c2)Nc2nccc(n2)-c2cccc(c2)COC/C=C/COC3)C1 (centres unmarked) [XVI-17] |
| 2% | 17% | 4% | 19% | 8% | O=C(/C=C/CN1CCC(O)C1)Nc1cc2cc(c1)Nc1nccc(n1)-c1cccc(c1)COC/C=C/COC2 (centres unmarked) [XVI-18] |
| 2% | 17% | -3% | 23% | 6% | O=C(/C=C/CNC1CCOC1)Nc1cc2cc(c1)Nc1nccc(n1)-c1cccc(c1)CCC/C=C/COC2 (centres unmarked) [XVI-19] |
| 85% | 90% | 33% | 91% | 97% | C1=C/COCc2ccc(OC/C=C/CN3CCCC3)c(c2)Nc2nccc(n2)-c2cccc(c2)COC/1 [XVI-20] |
| 92% | 78% | 44% | 82% | 95% | O=C(/C=C/COc1ccc2cc1Nc1nccc(n1)-c1cccc(c1)COC/C=C/COC2)N1CCCC1 [XVI-21] |
| 81% | 82% | 41% | 96% | 100% | O=C(/C=C/COc1ccc2cc1Nc1nccc(n1)-c1cccc(c1)COC/C=C/COC2)N1CCOCC1 [XVI-22] |
| 85% | 90% | 27% | 78% | 10% | C1=C/COCc2ccc(OC/C=C/CN3CCOCC3)c(c2)Nc2nccc(n2)-c2cccc(c2)COC/1 [XVI-23] |
| 81% | 86% | 50% | 82% | 88% | CN1CCC(NC(=O)/C=C/COc2ccc3cc2Nc2nccc(n2)-c2cccc(c2)COC/C=C/COC3)C1 (centres unmarked) [XVI-24] |
